pEC50, pIC50: −log10 of the molar value. Like-named read-outs stand apart in the source and are kept apart here.
What was measured:
[1] = molecular target: SARS-CoV-2 3CL-protease (Severe acute respiratory syndrome coronavirus 2, UniProt P0DTD1); experiment: SARS-CoV-2 3C-like (3CL) protease fluorescence assay (FRET); assay type: biochemical; conditions: read-out: FRET IC50
[2] = system: 229E human corona virus (hCoV); experiment: 229E live virus assay (CPE, ATPlite readout in MRC-5 cells); assay type: cell-based, hCoV-229E; conditions: MOI 0.05, ATPlite readout, run in duplicate
[3] = SARS-CoV-2 3CL-protease 10 nM, 30 min preincubation at RT, substrate 40 µM, test compounds 0 - 10 µM, duplicate
[4] = Human coronavirus 229E, MRC5, hCoV-229E live virus

| SMILES | pIC50 [1] | pEC50 [2, 4] | further results |
| --- | --- | --- | --- |
| [2H]C([2H])([2H])N(C(=O)C(O)c1ccc(F)cc1)C(CCCC)C(=O)N1CC2(CC1C#N)C(=O)Nc1ccccc12 (stereo not shown) [Example 420] | – | – | pIC50 [1, 3]: > 7.00 |
| CC(C)CC(C(=O)N1CC2(CC1C#N)C(=O)Nc1ccccc12)N(C)C(=O)c1cnc2ccc(F)cc2c1 (stereo not shown) [Example 337] | – | – | pIC50 [1, 3]: > 7.00 |
| CC(C)CC(C(=O)N1CC2(CC1C#N)C(=O)Nc1ccccc12)N(C)C(=O)c1nnn(-c2ccccc2)n1 (stereo not shown) [Example 287] | > 7.00 | > 7.00 | – |
| CC(C)C[C@H](NC(=O)c1cc2c(F)cc(F)c(F)c2[nH]1)C(=O)N1C[C@]2(C[C@H]1C#N)C(=O)Nc1ccccc12 [Example 152] | – | – | pIC50 [1, 3]: > 7.00 |
| CN(C(=O)[C@@H](O)C(C)(C)C)[C@@H](CC1CC1)C(=O)N1C[C@]2(C[C@H]1C#N)C(=O)Nc1ccccc12 [Example 416] | > 7.00 | > 7.00 | – |
| COc1cccc2[nH]c(C(=O)N[C@@H](COC(C)(C)C)C(=O)N3C[C@]4(C[C@H]3C#N)C(=O)Nc3ccccc34)cc12 [Example 124] | > 7.00 | > 7.00 | – |
| [2H]C([2H])([2H])N(C(=O)c1cnn(CC(F)(F)F)c1)[C@@H](CCCC)C(=O)N1C[C@]2(C[C@H]1C#N)C(=O)Nc1ccccc12 [Example 394] | – | – | pIC50 [1, 3]: > 7.00 |
| [2H]C([2H])([2H])N(C(=O)C(O)c1ccc(F)cc1)C(CCCC)C(=O)N1CC2(CC1C#N)C(=O)Nc1ccccc12 (stereo not shown) [Example 421] | – | – | pIC50 [1, 3]: > 7.00 |
| CC(C)(C)OC[C@H](NC(=O)c1cc2c(F)cc(F)cc2[nH]1)C(=O)N1C[C@]2(C[C@H]1C#N)C(=O)Nc1ccccc12 [Example 125] | > 7.00 | 6.00 to 7.00 | – |
| CC(C)CC(C(=O)N1CC2(CC1C#N)C(=O)Nc1ccccc12)N(C)C(=O)C1CCN(C(=O)C(F)(F)F)C1 (stereo not shown) [Example 347] | > 7.00 | – | pEC50 ([2]; hCoV-229E live virus): > 7.00 |
| CC(C)C[C@@H](C(=O)N1C[C@]2(C[C@H]1C(=O)C(=O)NC1CCCCC1)C(=O)Nc1ccccc12)N(C)C(=O)c1cc2c(F)cc(F)c(F)c2[nH]1 [Example 156] | < 6.00 | < 6.00 | – |
| COc1cc(C(=O)N(C)C(CC(C)C)C(=O)N2CC3(CC2C#N)C(=O)Nc2ccccc23)cc2cn(C3CC3)nc12 (stereo not shown) [Example 308] | > 7.00 | 6.00 to 7.00 | – |
| CC(C)C[C@@H](C(=O)N1C[C@]2(C[C@H]1C#N)C(=O)Nc1ccccc12)N(C)C(=O)[C@H]1CCN(C(=O)C(F)(F)F)C1 [Example 346] | > 7.00 | > 7.00 | – |
| CC(C)CC(C(=O)N1CC2(CC1C#N)C(=O)Nc1ccccc12)N(C)C(=O)c1cc(OC2CC2)c2nn(C3CC3)cc2c1 (stereo not shown) [Example 307] | 6.00 to 7.00 | 6.00 to 7.00 | – |
| C[C@H](OC(=O)N[C@@H](CC(C)(C)C)C(=O)N1C[C@]2(C[C@H]1C#N)C(=O)Nc1ccc(Cl)cc12)c1ccc(F)cc1 [Example 494] | > 7.00 | 6.00 to 7.00 | – |
| COC[C@@H](C(=O)N1C[C@]2(C[C@H]1C#N)C(=O)Nc1ccccc12)N(C)C(=O)c1cc2c(F)cc(F)cc2[nH]1 [Example 369] | – | – | pIC50 [1, 3]: > 7.00 |
| CN(C(=O)c1cnn(C(C)(C)C)c1)[C@@H](CC1CC1)C(=O)N1C[C@]2(C[C@H]1C#N)C(=O)Nc1ccccc12 [Example 404] | – | – | pIC50 [1, 3]: > 7.00 |
| CC(C)CC(C(=O)N1CC2(CC1C#N)C(=O)Nc1ccccc12)N(C)C(=O)c1nccc2ccccc12 (stereo not shown) [Example 300] | – | – | pIC50 [1, 3]: 6.00 to 7.00 |
| CC(C)(C)CC(NC(=O)c1cnn(-c2ccc(F)cc2)c1)C(=O)N1CC2(CC1C#N)C(=O)Nc1ccccc12 (stereo not shown) [Example 146] | > 7.00 | > 7.00 | – |
| CN(C(=O)c1cc2c(F)cc(F)cc2[nH]1)[C@@H](Cc1ccc(O)cc1)C(=O)N1C[C@]2(C[C@H]1C#N)C(=O)Nc1ccccc12 [Example 388] | – | – | pIC50 [1, 3]: > 7.00 |
| CC(C)C[C@@H](C(=O)N1C[C@]2(C[C@H]1C#N)C(=O)Nc1ccccc12)N(C)C(=O)c1ccccc1OC(F)F [Example 176] | > 7.00 | > 7.00 | – |
| CC(C)C[C@@H](C(=O)N1C[C@]2(C[C@H]1C#N)C(=O)Nc1ccccc12)N(C)C(=O)c1cc2cc(Br)ccc2cn1 [Example 230] | 6.00 to 7.00 | > 7.00 | – |
| COc1cc(C(=O)N(C)[C@@H](CC(C)C)C(=O)N2C[C@]3(C[C@H]2C#N)C(=O)Nc2ccccc23)cn2cc(C(F)F)nc12 [Example 255] | > 7.00 | > 7.00 | – |

| SMILES | pIC50 [1] | pEC50 [2, 4] | further results |
| --- | --- | --- | --- |
| CC(C)C[C@@H](C(=O)N1C[C@]2(C[C@H]1C#N)C(=O)Nc1ccccc12)N(C)C(=O)[C@@H]1C[C@H]1c1ccccc1 [Example 280] | > 7.00 | > 7.00 | – |
| C[C@@H](OC(=O)N[C@@H](CC(C)(C)C)C(=O)N1C[C@]2(C[C@H]1C#N)C(=O)Nc1ccc(F)cc12)c1ccc(F)cc1 [Example 523] | – | – | pIC50 [1, 3]: > 7.00 |
| CC(C)C[C@@H](C(=O)N1C[C@]2(C[C@H]1C#N)C(=O)Nc1ccccc12)N(C)C(=O)c1ccc(-c2ccccc2)cc1 [Example 277] | – | > 7.00 | – |
| [2H]C([2H])([2H])N(C(=O)[C@@H](O)c1ccccc1)[C@@H](CC(C)(C)C)C(=O)N1C[C@]2(C[C@H]1C#N)C(=O)Nc1ccccc12 [Example 427] | – | > 7.00 | – |
| Cc1ccc2cc(C(=O)N(C)[C@@H](CC(C)C)C(=O)N3C[C@]4(C[C@H]3C#N)C(=O)Nc3ccccc34)ccc2n1 [Example 234] | – | > 7.00 | – |
| CN(C(=O)Cc1cnccn1)[C@@H](CC(C)(C)F)C(=O)N1C[C@]2(C[C@H]1C#N)C(=O)Nc1ccc(Cl)cc12 [Example 484] | – | 6.00 to 7.00 | – |
| CC(C)CC(C(=O)N1CC2(CC1C#N)C(=O)Nc1ccccc12)N(C)C(=O)C1CC1c1ccccc1 (stereo not shown) [Example 281] | > 7.00 | – | pEC50 ([2]; hCoV-229E live virus): > 7.00 |
| CC(C)C[C@@H](C(=O)N1C[C@]2(C[C@H]1C#N)C(=O)Nc1ccccc12)N(C)C(=O)c1cc(Cl)cc(C#N)c1 [Example 187] | – | > 7.00 | – |
| CN(C(=O)c1cc2c(F)cc(F)cc2[nH]1)[C@@H](CC(C)(C)C)C(=O)N1C[C@]2(C[C@H]1C#N)C(=O)Nc1ccccc12 [Example 88] | – | > 7.00 | – |
| CC(C)(C)C[C@H](NC(=O)OCc1ccccc1)C(=O)N1C[C@]2(C[C@H]1C#N)C(=O)Nc1ccccc12 [Example 5] | – | 6.00 to 7.00 | – |
| CC(C)C[C@@H](C(=O)N1C[C@]2(C[C@H]1C#N)C(=O)Nc1ccccc12)N(C)C(=O)c1cc(OC2CC2)c2nc(Cl)ccc2c1 [Example 310] | – | 6.00 to 7.00 | – |
| N#C[C@@H]1C[C@@]2(CN1C(=O)[C@H](CC1CCC1)NC(=O)OCc1ccccc1)C(=O)Nc1ccccc12 [Example 2] | – | 6.00 to 7.00 | – |
| CC(C)(F)C[C@H](NC(=O)c1cc2ccccn2n1)C(=O)N1C[C@]2(C[C@H]1C#N)C(=O)Nc1ccc(Cl)cc12 [Example 446] | – | 6.00 to 7.00 | – |
| Cc1cccc(C(F)(F)C(=O)N(C)[C@@H](CC(C)(C)F)C(=O)N2C[C@]3(C[C@H]2C#N)C(=O)Nc2ccc(Cl)cc23)n1 [Example 486] | – | 6.00 to 7.00 | – |
| CC(C)C[C@@H](C(=O)N1C[C@]2(C[C@H]1C#N)C(=O)Nc1ccccc12)N(C)C(=O)c1ccc(-c2ccccc2)cc1 [Example 232] | – | > 7.00 | – |
| CC(C)C[C@@H](C(=O)N1C[C@]2(C[C@H]1C#N)C(=O)Nc1ccc(NC(=O)C3(F)CC3)cc12)N(C)C(=O)c1cc2c(F)cc(F)cc2[nH]1 [Example 504, N-((S)-1-((3R,5'S)-5'-cyano-5-(1-fluorocyclopropane-1-carboxamido)-2-oxospiro[indoline-3,3'-pyrrolidin]-1'-yl)-4-methyl-1-oxopentan-2-yl)-4,6-difluoro-N-methyl-1H-indole-2-carboxamide] | – | > 7.00 | – |
| CC(C)C[C@@H](C(=O)N1C[C@]2(C[C@H]1C#N)C(=O)Nc1ccccc12)N(C)C(=O)c1cc(F)c2nn(C3CC3)cc2c1 [Example 311] | – | > 7.00 | – |
| CC(C)C[C@@H](C(=O)N1C[C@]2(C[C@H]1C#N)C(=O)Nc1ccccc12)N(C)C(=O)c1nc2c(F)cc(F)c(F)c2[nH]1 [Example 270] | – | > 7.00 | – |
| CC(C)C[C@@H](C(=O)N1C[C@]2(C[C@H]1C#N)C(=O)Nc1ccccc12)N(C)C(=O)c1cc(F)ccn1 [Example 197] | – | > 7.00 | – |
| CC(C)(C)[C@H](NC(=O)c1cc2c(F)cccc2[nH]1)C(=O)N1C[C@]2(C[C@H]1C#N)C(=O)Nc1ccccc12 [Example 18] | – | 6.00 to 7.00 | – |
| CC(C)C[C@@H](C(=O)N1C[C@]2(C[C@H]1C#N)C(=O)Nc1ccccc12)N(C)C(=O)c1ccc2ccccc2c1 [Example 219] | – | > 7.00 | – |
| CC(C)C[C@@H](C(=O)N1C[C@]2(C[C@H]1C#N)C(=O)Nc1ccccc12)N(C)C(=O)c1cccc2cnccc12 [Example 215] | – | > 7.00 | – |
